Results: patent publication US8334239B2, “High affinity VEGF-receptor antagonists” (The Board of Regents of the University of Texas System, priority 2007, dated 2012)
Entries after “also recorded” stand apart in the source; their conditions may differ. Positions of bridges follow the written chain, without caps; N, C: chain ends. Non-standard residues stand in square brackets, D forms with d. Residues, ends and D or L forms follow the SMILES beside them. Chains are numbered I, II in the order given. *: point of attachment. Fluorescein(5-Mal) = O=C1OC2(c3ccc(O)cc3Oc3cc(O)ccc32)c2ccc(N3C(=O)CC(*)C3=O)cc21; Gly(N(CH2)2(3-indolyl)) = O=C(O)CNCCc1c[nH]c2ccccc12; Gly(N-piperonyl) = O=C(O)CNCc1ccc2c(c1)OCO2; Nrpe = C[C@@H](NCC(=O)O)c1ccccc1; NFurfurylGly = O=C(O)CNCc1ccco1; Nleu = CC(C)CNCC(=O)O; Nlys = NCCCCNCC(=O)O; Ahx = NCCCCCC(=O)O; βAla = NCCC(=O)O

Key:
VEGFR2 [1] = target: T1, VEGFR2 (Homo sapiens, UniProt P35968); assay: ELISA-like binding assay, fluoresceinated peptoids on immobilized VEGFR2 extracellular domain; design: VEGFR2 extracellular domain (amino acids 1-764 fused to 6× histidine-tagged Fc of human IgG, via the peptide IEGRMD; R&D Systems); linker peptide IEGRMD (internal); Fc of human IgG (C); 6xHis (C); purchased R&D Systems; conditions: for Fold improved: binding improved compared to the monomer of the series
Method: ELISA based binding assay. White, clear bottom 96-well plates (Corning Inc.) were coated with of 1 μg/ml recombinant human VEGFR2 protein (R&D Systems) using the sensitizing buffer (0.621 g NaHCO3 & 0.275 g Na2CO3 dissolved on 100 ml of ddH2O, pH=9.5) overnight at 4° C. Washed with 3×200 μl of wash buffer 1×PBS with 0.05% Tween-20 and blocked with Startingblock blocking buffer (Pierce). Added 50 μl of serial dilutions of FITC labeled peptoids dissolved in Startingblock blocking buffer to each well & allowed to react for 1 h at room temperature. Washed with 5×200 μl of wash buffer 1×PBS with 0.05% Tween-20 and remaining fluorescence was measured at 520 nm using the plate reader.
The isolated peptoids are VEGFR2 ligands. Two of the ‘hits’ from this screen, GU40C and GU40E (see FIG. 2) were resynthesized, both as free compounds and with C-terminal Cys (for C-terminal fluorescein tagging via maleimide chemistry), cleaved from the beads and purified to apparent homogeneity by reverse phase HPLC. […] The association of these peptoids with VEGFR2 was evaluated using an ELISA-like assay. A commercially available fusion protein containing the VEGFR2 extracellular domain (amino acids 1-764 fused to 6× histidine-tagged Fc of human IgG, via the peptide IEGRMD; R&D Systems) was plated into 96-well plates and then mixed with various concentrations of […] Fluorescein (FITC)-labeled peptoid. After washing away unbound peptoid, the remaining fluorescence emission signal was measured at 520 nm. In this assay purified VEGFR2 protein was used instead of the whole PAE/KDR cells that over express VEGFR2, in order to confirm these compounds were binding only to the receptor.
Target sequence in this assay (P35968 20-764): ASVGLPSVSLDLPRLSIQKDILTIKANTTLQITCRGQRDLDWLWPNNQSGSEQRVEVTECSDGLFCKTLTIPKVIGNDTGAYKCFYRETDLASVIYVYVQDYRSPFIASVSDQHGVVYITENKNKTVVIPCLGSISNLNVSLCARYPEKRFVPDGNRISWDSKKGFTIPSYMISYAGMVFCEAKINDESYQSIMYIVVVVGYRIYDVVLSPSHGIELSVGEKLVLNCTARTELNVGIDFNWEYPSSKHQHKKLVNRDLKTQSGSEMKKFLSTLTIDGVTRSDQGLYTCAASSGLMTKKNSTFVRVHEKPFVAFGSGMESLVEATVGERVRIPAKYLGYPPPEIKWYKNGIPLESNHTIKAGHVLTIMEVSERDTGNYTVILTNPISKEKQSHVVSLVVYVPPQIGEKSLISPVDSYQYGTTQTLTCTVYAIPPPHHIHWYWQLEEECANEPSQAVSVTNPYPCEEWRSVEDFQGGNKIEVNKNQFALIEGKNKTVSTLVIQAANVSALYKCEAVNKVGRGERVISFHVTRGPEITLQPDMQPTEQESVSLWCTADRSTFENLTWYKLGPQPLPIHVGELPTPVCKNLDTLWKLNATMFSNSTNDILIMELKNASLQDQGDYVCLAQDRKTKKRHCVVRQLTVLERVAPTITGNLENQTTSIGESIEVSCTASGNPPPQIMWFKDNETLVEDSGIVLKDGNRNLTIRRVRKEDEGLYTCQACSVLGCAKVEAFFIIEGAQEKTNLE

VEGFR2 [2] = target: T1, VEGFR2; assay: VEGF-induced VEGFR2 autophosphorylation in PAE/KDR cells, Western blot; format: cell-based; design: allow the library to be screened against the full-length receptor in as natural an environment as possible; host or cells: PAE/KDR (porcine aortic endothelial cells expressing human KDR); conditions: for agonist activity on VEGFR2 phosphorylation: PAE/KDR cells, Western blot; for effect on VEGF-induced VEGFR2 phosphorylation (in words): monomeric peptoids, 500 μM
Method: Western blots. Experiments were conducted using PAE/KDR cells that were grown on 6-well plates. […] The blots were probed with Phospho-VEGF receptor 2 (Tyr1175) (19A10) rabbit monoclonal or Total VEGFR2 primary antibodies (Cell signaling) and HRP-conjugated secondary antibody (BioRad).
Functional characterization of the VEGFR2-binding peptoids. GU40C and GU40E were then tested for their ability to modulate VEGFR function. Of course, since the screen simply demanded binding of the peptoid to the receptor, it was not a given that this would be the case. […] Western blot analysis using phospho-VEGFR2-specific antibodies was then employed to monitor receptor activation.
To do so, the inventors examined the effect of the peptoid on VEGF-induced VEGFR2 autophosphorylation by Western blotting, as described earlier.
Target sequence in this assay (P35968 20-1356): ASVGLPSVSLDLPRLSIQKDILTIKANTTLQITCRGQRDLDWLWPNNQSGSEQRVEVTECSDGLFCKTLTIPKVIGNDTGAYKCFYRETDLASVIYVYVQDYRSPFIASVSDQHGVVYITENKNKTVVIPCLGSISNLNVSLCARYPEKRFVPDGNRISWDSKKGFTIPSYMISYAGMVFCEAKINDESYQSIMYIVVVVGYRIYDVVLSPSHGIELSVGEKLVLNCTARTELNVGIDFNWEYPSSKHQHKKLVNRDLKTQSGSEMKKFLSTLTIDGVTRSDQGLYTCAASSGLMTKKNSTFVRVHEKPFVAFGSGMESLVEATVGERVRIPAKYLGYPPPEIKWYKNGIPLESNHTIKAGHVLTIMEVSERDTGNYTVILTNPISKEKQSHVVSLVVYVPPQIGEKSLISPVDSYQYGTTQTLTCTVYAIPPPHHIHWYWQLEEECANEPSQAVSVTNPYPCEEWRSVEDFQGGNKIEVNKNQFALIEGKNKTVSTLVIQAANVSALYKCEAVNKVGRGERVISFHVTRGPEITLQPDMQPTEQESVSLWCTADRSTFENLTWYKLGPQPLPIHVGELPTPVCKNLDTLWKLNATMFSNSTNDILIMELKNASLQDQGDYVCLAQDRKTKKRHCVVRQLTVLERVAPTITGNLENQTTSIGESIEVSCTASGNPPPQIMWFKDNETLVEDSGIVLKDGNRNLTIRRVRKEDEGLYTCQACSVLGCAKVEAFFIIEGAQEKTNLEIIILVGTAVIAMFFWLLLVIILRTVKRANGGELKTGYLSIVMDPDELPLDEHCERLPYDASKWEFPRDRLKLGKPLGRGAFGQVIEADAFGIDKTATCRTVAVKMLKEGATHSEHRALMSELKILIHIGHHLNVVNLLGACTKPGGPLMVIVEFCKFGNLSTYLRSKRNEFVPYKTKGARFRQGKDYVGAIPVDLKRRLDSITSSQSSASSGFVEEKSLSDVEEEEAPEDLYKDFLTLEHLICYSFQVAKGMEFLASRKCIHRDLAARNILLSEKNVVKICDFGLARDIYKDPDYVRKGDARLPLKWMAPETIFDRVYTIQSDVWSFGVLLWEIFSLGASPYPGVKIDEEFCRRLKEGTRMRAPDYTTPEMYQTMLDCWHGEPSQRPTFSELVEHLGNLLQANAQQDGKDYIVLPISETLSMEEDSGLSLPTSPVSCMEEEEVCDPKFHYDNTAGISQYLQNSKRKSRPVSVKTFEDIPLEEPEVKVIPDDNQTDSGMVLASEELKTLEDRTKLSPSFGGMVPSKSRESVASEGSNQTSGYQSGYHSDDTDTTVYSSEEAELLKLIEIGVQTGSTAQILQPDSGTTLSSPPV

GST = assay: ELISA-like binding assay on immobilized GST
CD105 = target: T2, CD105 (Homo sapiens, UniProt P17813); assay: ELISA-like binding assay on immobilized CD105; conditions: same ELISA-like assay
T2 sequence (P17813 26-658): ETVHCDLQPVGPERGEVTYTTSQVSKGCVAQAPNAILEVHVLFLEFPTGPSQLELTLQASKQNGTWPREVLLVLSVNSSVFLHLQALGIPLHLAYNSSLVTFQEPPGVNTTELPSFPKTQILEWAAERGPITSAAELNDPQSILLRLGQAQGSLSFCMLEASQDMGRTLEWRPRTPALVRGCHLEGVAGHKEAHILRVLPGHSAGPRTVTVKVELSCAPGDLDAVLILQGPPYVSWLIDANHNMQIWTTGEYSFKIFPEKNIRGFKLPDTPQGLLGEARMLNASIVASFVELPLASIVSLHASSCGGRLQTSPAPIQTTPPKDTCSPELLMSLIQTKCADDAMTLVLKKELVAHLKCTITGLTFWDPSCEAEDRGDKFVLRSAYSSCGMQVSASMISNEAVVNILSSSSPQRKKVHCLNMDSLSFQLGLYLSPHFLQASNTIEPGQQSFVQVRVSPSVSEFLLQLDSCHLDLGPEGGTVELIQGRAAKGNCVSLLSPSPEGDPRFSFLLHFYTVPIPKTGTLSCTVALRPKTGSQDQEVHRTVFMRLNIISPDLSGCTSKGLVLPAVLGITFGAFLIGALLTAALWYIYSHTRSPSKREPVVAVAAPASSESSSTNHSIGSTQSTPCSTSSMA

| Molecule | Fold improved (VEGFR2 [1]) [fold] | agonist activity on VEGFR2 phosphorylation (VEGFR2 [2]) | effect on VEGF-induced VEGFR2 phosphorylation (in words) (VEGFR2 [2]; 1.3 nM VEGF) | other results |
| --- | --- | --- | --- | --- |
| CC(C)CN(CC(=O)N(CCCCN)CC(=O)N(CCCCN)CC(=O)NCCCCCC(=O)NCCC(=O)N[C@@H](CCCCNC(=O)CN(CCCCN)C(=O)CN(CCCCN)C(=O)CN(CC(C)C)C(=O)CN(CCCCN)C(=O)CN(CC(C)C)C(=O)CN(CCCCN)C(=O)CN(Cc1ccco1)C(=O)CN(CCCCN)C(=O)CNCCc1c[nH]c2ccccc12)C(=O)N[C@@H](CSC1CC(=O)N(c2ccc3c(c2)C(=O)OC32c3ccc(O)cc3Oc3cc(O)ccc32)C1=O)C(N)=O)C(=O)CN(CCCCN)C(=O)CN(CC(C)C)C(=O)CN(CCCCN)C(=O)CN(Cc1ccco1)C(=O)CN(CCCCN)C(=O)CNCCc1c[nH]c2ccccc12 (some centres unmarked) [GU40E4] (I: H-[Gly(N(CH2)2(3-indolyl))][Nlys][NFurfurylGly][Nlys][Nleu][Nlys][Nleu][Nlys][Nlys][Ahx][βAla]KC(Fluorescein(5-Mal))-NH2 / II: H-[Gly(N(CH2)2(3-indolyl))][Nlys][NFurfurylGly][Nlys][Nleu][Nlys][Nleu][Nlys][Nlys]; amide I:12-II:C; N-terminus assumed) | 9 |  |  |  |
| Nlys-Npip-Nleu-Nlys-Npip-Nlys-Nleu-Nlys-Nlys [GU40B] |  | None of the peptoids exhibited agonist activity | no effect |  |
| CC(C)CN(CC(=O)N(CCCCN)CC(=O)N(CCCCN)CC(=O)NCCCC[C@H](NC(=O)CCNC(=O)CN(CCCCN)C(=O)CN(CCCCN)C(=O)CN(CC(C)C)C(=O)CN(CCCCN)C(=O)CN(CC(C)C)C(=O)CN(CCCCN)C(=O)CN(Cc1ccco1)C(=O)CN(CCCCN)C(=O)CNCCc1c[nH]c2ccccc12)C(=O)N[C@@H](CSC1CC(=O)N(c2ccc3c(c2)C(=O)OC32c3ccc(O)cc3Oc3cc(O)ccc32)C1=O)C(N)=O)C(=O)CN(CCCCN)C(=O)CN(CC(C)C)C(=O)CN(CCCCN)C(=O)CN(Cc1ccco1)C(=O)CN(CCCCN)C(=O)CNCCc1c[nH]c2ccccc12 (some centres unmarked) [GU40E2] (I: H-[Gly(N(CH2)2(3-indolyl))][Nlys][NFurfurylGly][Nlys][Nleu][Nlys][Nleu][Nlys][Nlys][βAla]KC(Fluorescein(5-Mal))-NH2 / II: H-[Gly(N(CH2)2(3-indolyl))][Nlys][NFurfurylGly][Nlys][Nleu][Nlys][Nleu][Nlys][Nlys]; amide I:11-II:C; N-terminus assumed) | 2 |  |  |  |
| CC(C)CN(CC(=O)N(CCCCN)CC(=O)N(CCCCN)CC(N)=O)C(=O)CN(CCCCN)C(=O)CN(CC(C)C)C(=O)CN(CCCCN)C(=O)CN(Cc1ccco1)C(=O)CN(CCCCN)C(=O)CNCCc1c[nH]c2ccccc12 [GU40E, Ntrp-Nlys-Nffa-Nlys-Nleu-Nlys-Nleu-Nlys-Nlys] (H-[Gly(N(CH2)2(3-indolyl))][Nlys][NFurfurylGly][Nlys][Nleu][Nlys][Nleu][Nlys][Nlys]-NH2) |  | Neither peptoid at any concentration tested evinced agonist activity; also recorded: None of the peptoids exhibited agonist activity | weak antagonists | binding to GST (GST): did not bind detectably; binding after pre-incubation of immobilized receptor with unlabeled VEGF (VEGFR2 [1]; fluoresceinated peptoid): almost no binding; binding to CD105 (CD105): did not bind detectably |
| CC(C)CN(CC(=O)N(CCCCN)CC(=O)N(CC(=O)N(CC(=O)N(CCCCN)CC(=O)N(CC(=O)N(CCCCN)CC(=O)N(CCCCN)CC(=O)NCCCC[C@H](NC(=O)CCNC(=O)CN(CCCCN)C(=O)CN(CCCCN)C(=O)CN(CC(C)C)C(=O)CN(CCCCN)C(=O)CN(Cc1ccc2c(c1)OCO2)C(=O)CN(C(=O)CN(CCCCN)C(=O)CN(CC(C)C)C(=O)CNCCCCN)[C@H](C)c1ccccc1)C(=O)N[C@@H](CSC1CC(=O)N(c2ccc3c(c2)C(=O)OC32c3ccc(O)cc3Oc3cc(O)ccc32)C1=O)C(N)=O)CC(C)C)Cc1ccc2c(c1)OCO2)[C@H](C)c1ccccc1)C(=O)CNCCCCN (some centres unmarked) [GU40C2] (I: H-[Nlys][Nleu][Nlys][Nrpe][Gly(N-piperonyl)][Nlys][Nleu][Nlys][Nlys][βAla]KC(Fluorescein(5-Mal))-NH2 / II: H-[Nlys][Nleu][Nlys][Nrpe][Gly(N-piperonyl)][Nlys][Nleu][Nlys][Nlys]; amide I:11-II:C; N-terminus assumed) | 11 |  |  |  |
| Avastin: ultra-high affinity anti-VEGF antibody employed clinically [reference compound] |  |  |  | effect on VEGFR2 autophosphorylation (in words) (VEGFR2 [2]; 1 μM, 1.3 nM VEGF): completely blocked |
